For one experiment, the target named is T1, RAR γ (Homo sapiens, UniProt P13631).
T1 sequence (P13631 1-454): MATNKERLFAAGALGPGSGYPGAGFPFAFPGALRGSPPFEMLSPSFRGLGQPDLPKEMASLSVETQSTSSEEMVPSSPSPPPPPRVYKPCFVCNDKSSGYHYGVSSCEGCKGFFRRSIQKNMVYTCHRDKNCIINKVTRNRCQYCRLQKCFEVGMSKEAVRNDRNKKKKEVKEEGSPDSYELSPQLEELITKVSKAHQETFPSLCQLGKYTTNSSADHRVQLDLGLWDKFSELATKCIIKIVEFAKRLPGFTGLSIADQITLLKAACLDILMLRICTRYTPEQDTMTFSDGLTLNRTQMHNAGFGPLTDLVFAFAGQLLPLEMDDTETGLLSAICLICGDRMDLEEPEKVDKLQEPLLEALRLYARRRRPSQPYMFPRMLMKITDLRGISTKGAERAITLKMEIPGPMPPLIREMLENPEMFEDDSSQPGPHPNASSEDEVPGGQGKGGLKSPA
The experiment can be described thus: RAR γ Kd. The format is binding. Particulars: last item of cell EC50/(EFFICACY)/Kd.

Experiment [1] concerns the target T2, RAR β (Homo sapiens, UniProt P10826).
T2 sequence (P10826 1-455): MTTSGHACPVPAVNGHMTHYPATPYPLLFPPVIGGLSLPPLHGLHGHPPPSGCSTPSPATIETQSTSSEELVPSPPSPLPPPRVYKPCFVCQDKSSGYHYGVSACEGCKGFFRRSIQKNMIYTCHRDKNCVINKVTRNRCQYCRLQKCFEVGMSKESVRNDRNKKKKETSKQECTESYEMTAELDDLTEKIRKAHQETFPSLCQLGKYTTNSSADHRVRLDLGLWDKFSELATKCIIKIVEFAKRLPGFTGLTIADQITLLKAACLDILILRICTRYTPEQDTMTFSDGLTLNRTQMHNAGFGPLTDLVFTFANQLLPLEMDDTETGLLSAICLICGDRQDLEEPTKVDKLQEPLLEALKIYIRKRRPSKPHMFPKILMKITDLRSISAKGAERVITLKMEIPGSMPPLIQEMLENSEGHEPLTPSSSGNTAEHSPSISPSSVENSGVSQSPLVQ
The experiment can be described thus: RAR β EC50/(efficacy). The format is cell-based. As to conditions: value in brackets of cell EC50/(EFFICACY)/Kd.

The next experiment has as its target T3, RAR α (Homo sapiens, UniProt P10276).
T3 sequence (P10276 1-462): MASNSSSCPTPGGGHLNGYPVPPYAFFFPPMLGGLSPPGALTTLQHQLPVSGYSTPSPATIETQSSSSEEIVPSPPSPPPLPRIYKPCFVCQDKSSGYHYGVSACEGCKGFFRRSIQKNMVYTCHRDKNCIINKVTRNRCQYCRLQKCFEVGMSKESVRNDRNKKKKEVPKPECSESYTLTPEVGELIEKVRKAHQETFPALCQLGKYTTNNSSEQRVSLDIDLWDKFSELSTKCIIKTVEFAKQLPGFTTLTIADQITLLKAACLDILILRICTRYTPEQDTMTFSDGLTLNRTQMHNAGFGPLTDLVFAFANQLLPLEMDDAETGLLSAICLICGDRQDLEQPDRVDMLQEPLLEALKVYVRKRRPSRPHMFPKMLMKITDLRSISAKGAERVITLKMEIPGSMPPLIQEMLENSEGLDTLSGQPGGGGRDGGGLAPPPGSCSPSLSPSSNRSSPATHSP
Put plainly: RAR α Kd. The format is binding. As to conditions: last item of cell EC50/(EFFICACY)/Kd.

The target of experiment [2] is T2, RAR β. The experiment can be described thus: RAR β Kd. In kind it is binding. Particulars: last item of cell EC50/(EFFICACY)/Kd.
For another experiment, the target named is T4, CYP26A (P450RAI-1) (Homo sapiens, UniProt O43174).
T4 construct: expressed in transfected cells; host or cells: HeLa
T4 sequence (O43174 1-497): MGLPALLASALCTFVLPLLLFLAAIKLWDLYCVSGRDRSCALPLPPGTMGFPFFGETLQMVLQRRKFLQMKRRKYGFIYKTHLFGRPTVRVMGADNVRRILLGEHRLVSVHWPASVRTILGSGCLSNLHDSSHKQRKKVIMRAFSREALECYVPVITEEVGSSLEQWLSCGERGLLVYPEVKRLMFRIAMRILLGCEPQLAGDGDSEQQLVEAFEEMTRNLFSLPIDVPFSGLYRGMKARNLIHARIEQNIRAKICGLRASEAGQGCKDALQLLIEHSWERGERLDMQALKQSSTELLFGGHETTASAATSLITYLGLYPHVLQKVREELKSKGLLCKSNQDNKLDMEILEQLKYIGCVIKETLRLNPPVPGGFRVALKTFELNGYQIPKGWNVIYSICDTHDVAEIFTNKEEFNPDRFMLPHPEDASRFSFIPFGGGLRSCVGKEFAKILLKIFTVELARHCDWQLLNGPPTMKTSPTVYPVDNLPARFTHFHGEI
The experiment can be described thus: Cell-based inhibition of RA metabolism in CYP26A stably transfected HeLa cells. As to conditions: stably transfected HeLa cells, [3H]-RA, 3 hours at 37° C.; read-out: P450RAI-1 Whole cell IC50. How it is done:
(§1) In brief, CYP26A or CYP26B can be stably transfected into HeLa cells. Exponentially growing cells are harvested by incubating in trypsin. Cells are then washed and plated in a 48-well plate at 5×10^5 cells in 0.2 ml MEM medium containing 10% FBS and 0.05 μCi [^3H]-RA in the presence or absence of increasing concentrations of the test compounds. The compounds are diluted in 100% DMSO and then added in triplicate wells at either 10, 1 or 0.1 μM final concentration. As a positive control for RA metabolism inhibition, cells are also incubated with ketoconazole at 100, 10 and 1 μM. Cells are incubated for 3 hours at 37 degrees C. The retinoids are then extracted using the procedure of Bligh et al., Canadian Journal of Biochemistry 37: 911-917 (1959), modified by using methylenechloride instead of chloroform. This publication by Bligh et al., is specifically incorporated herein by reference. The water soluble radioactivity is quantified using a β scintillation counter, and IC50 values are determined.
(§2) CYP26A and CYP26B stably transfected HeLa cells were maintained in 100 mm tissue culture dishes in MEM medium containing 10% FBS and 100 μg/ml hygromycin.
(§3) Exponentially growing cells were harvested by incubating in trypsin. Cells were then washed with 1×PBS and plated in a 48-well plate at 5×10^5 cells in 0.2 ml MEM medium containing 10% FBS and 0.05 μCi [^3H]-RA in the presence or absence of increasing concentrations of the test compounds. The compounds were diluted in 100% DMSO and then added to triplicate wells at final concentrations of 10, 1 or 0.1 μM. As a positive control for RA metabolism inhibition, cells were also incubated with ketoconazole at 100, 10 and 1 μM. Cells were incubated for 3 hours at 37° C. The retinoids were then extracted using a modified Bligh and Dyer procedure (Bligh and Dyer, supra (1959)), in which methylene-chloride, as opposed to chloroform, was used, and the aqueous soluble radioactivity quantified using a β-scintillation counter. ID50 values represent the concentration of inhibitor required to inhibit RA metabolism by 50 percent and were derived manually from log-transformed data.

In another experiment the target is T5, CYP26B (P450RAI-2) (Homo sapiens, UniProt Q9NR63).
T5 construct: expressed in transfected cells; host or cells: HeLa
T5 sequence (Q9NR63 1-512): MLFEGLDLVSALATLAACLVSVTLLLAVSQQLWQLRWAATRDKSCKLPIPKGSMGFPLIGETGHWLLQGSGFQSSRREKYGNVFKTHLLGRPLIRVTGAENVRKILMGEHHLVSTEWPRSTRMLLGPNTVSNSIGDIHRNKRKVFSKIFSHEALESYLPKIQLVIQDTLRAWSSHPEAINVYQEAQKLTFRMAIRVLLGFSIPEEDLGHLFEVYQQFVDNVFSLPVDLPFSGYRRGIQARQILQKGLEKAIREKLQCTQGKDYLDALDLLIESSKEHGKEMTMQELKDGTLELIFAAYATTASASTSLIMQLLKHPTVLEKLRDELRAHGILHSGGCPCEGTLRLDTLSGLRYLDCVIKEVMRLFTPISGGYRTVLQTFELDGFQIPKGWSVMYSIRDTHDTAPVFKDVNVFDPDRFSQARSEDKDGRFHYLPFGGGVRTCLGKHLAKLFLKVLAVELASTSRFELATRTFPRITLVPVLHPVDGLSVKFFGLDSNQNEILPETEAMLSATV
The experiment can be described thus: Cell-based inhibition of RA metabolism in CYP26B stably transfected HeLa cells. Particulars: stably transfected HeLa cells, [3H]-RA, 3 hours at 37° C.; read-out: P450RAI-2 Whole cell IC50. How it is done: as §1, §2, §3

9 compounds from US7468391B2, “Methods for treating retinoid responsive disorders using selective inhibitors of CYP26A and CYP26B” (Allergan, Inc., priority 2003, dated 2008) can be followed below.

Where only a bound is given, the exact number is not on record here.

As for `CCOC(=O)C1=CCC(C)(C)c2cc(C#Cc3ccc(CC(=O)O)c(F)c3)c(C)cc21` [Compound 56, 6-(4-Carboxymethyl-3-fluoro-phenylethynyl)-4,4,7-trimethyl-3,4-dihydro-naphthalene-1-carboxylic acid ethyl ester], the Kd at RAR γ, at RAR α and on RAR β [2] was greater than 10 µM in each case. In addition, the “RAR β (EFFICACY)” value at RAR β [1] came to 30. For the same compound, the IC50 at CYP26A (P450RAI-1) stood at 0.5 µM.
`CC1(C)CC2(CC2)Oc2c(C3CC3)cc(C#Cc3ccc(C(C)(C)C(=O)O)cc3)cc21` [Compound 2, 2-{4-[(8-Cyclopropyl-3,4-dihydro-4,4-dimethylspiro[2H-1-benzopyran-2,1′-cyclopropane]-6-yl)ethynyl]-phenyl}-2-methyl-propionic acid]: the values for the Kd on RAR γ, at RAR α and at RAR β [2] were 5.58 µM, 0.558 µM and 3.44 µM, respectively. The IC50 at CYP26B (P450RAI-2) was greater than 10 µM; on CYP26A (P450RAI-1), 0.03 µM.
For `CC(C)OC(=O)c1ccc(C#Cc2ccc(CC(=O)O)c(F)c2)cc1CN(C)C1CC1` [Compound 39, 4-(4-Carboxymethyl-3-fluoro-phenylethynyl)-2-[(cyclopropyl-methyl-amino)-methyl]-benzoic acid isopropyl ester], the Kd on RAR γ, at RAR α and at RAR β [2] was greater than 10 µM each time. In addition, the figures for the IC50 on CYP26B (P450RAI-2) and on CYP26A (P450RAI-1) were greater than 10 µM and 2.5 µM, respectively.
With `COc1cc(C#Cc2ccc(/C=C/C(=O)O)cc2)cc2c1C(N(C)C1CC1)CCC2(C)C` (stereo not drawn) [Compound 29, (E)-3-{4-[5-(Cyclopropyl-methyl-amino)-4-methoxy-8,8-dimethyl-5,6,7,8-tetrahydro-naphthalen-2-ylethynyl]-phenyl}-acrylic acid], the Kd on RAR γ, at RAR α and on RAR β [2] was greater than 10 µM throughout. Further, the half-maximal inhibitory concentration (IC50) at CYP26B (P450RAI-2) is greater than 10 µM; at CYP26A (P450RAI-1) it was 0.6 µM.
As for `COc1cc(C#Cc2ccc(CC(=O)O)cc2)cc2c1C(N(C)C1CC1)CCC2(C)C` (stereo not drawn) [Compound 25, {4-[5-(Cyclopropyl-methyl-amino)-4-methoxy-8,8-dimethyl-5,6,7,8-tetrahydro-naphthalen-2-ylethynyl]-phenyl}-acetic acid], the Kd at RAR γ is 0.317 µM; at RAR α it was greater than 10 µM; on RAR β [2], greater than 10 µM. Also, the IC50 is greater than 10 µM at CYP26B (P450RAI-2) and 0.1 µM at CYP26A (P450RAI-1).
As to `CC(C(=O)O)c1ccc(C#Cc2cc(C3CC3)c3c(c2)C(C)(C)CC2(CC2)O3)cc1` (stereo not drawn) [Compound 1, 2-{4-[(8-Cyclopropyl-3,4-dihydro-4,4-dimethylspiro[2H-1-benzopyran-2,1′-cyclopropane]-6-yl)ethynyl]-phenyl}-propionic acid], the Kd was found to be 3.49 µM on RAR γ, 2.09 µM on RAR α and 3.02 µM at RAR β [2]. Also, the IC50 came to 8 µM at CYP26B (P450RAI-2) and 0.009 µM at CYP26A (P450RAI-1).
In the same order, the values of `CN(Cc1cc(C#Cc2ccc(CC(=O)O)c(F)c2)cc2c1OC(C)(C)CC2(C)C)C1CC1` [Compound 7, (4-{8-[(Cyclopropyl-methyl-amino)-methyl]-2,2,4,4-tetramethyl-chroman-6-ylethynyl}-2-fluoro-phenyl)-acetic acid] are greater than 10 µM, greater than 10 µM, greater than 10 µM, 2 µM and 0.04 µM.
In the same order, the values of `C#Cc1cc(C#Cc2ccc(CC(=O)OCOC(C)=O)c(F)c2)cc(C(=O)OC(C)C)c1` [Compound 62, 3-(4-Acetoxymethoxycarbonylmethyl-3-fluoro-phenylethynyl)-5-ethynyl-benzoic acid isopropyl ester] are greater than 10 µM, greater than 10 µM, greater than 10 µM, 6.1 µM and 0.4 µM.
Consider `CC(C)OC(=O)c1cccc(C#Cc2ccc(CC(=O)O)c(F)c2)c1` [Compound 44, 3-(4-Carboxymethyl-3-fluoro-phenylethynyl)-benzoic acid isopropyl ester], for which the figures for the Kd at RAR γ, at RAR α and on RAR β [2] were greater than 10 µM, greater than 10 µM and 8.17 µM, respectively. Further, the half-maximal inhibitory concentration (IC50) on CYP26B (P450RAI-2) was determined as 7.5 µM; at CYP26A (P450RAI-1) it was 0.7 µM.

A word on the Kd: it is a measure of binding affinity in units of concentration. Low readings indicate a tighter complex, high ones a looser complex. The IC50 is the concentration needed to halve the response being measured.
